What is called IC50 is the midpoint of a concentration-inhibition curve.

Experiment [1] relates to Plasmodium falciparum. Put plainly: Antimalarial activity against chloroquine-resistant Plasmodium falciparum W2 after 72 hrs by parasite LDH assay. Type of experiment: functional, organism-based. Particulars: W2, 72 h.
The test system of experiment [2] is Plasmodium falciparum. Put plainly: Antimalarial activity against chloroquine-sensitive Plasmodium falciparum D10 after 72 hrs by parasite LDH assay. Type of experiment: functional, organism-based. The settings on record: D10, 72 h.

Consider `C/C=C(C)/C=C/CCC[C@]1(OC)C[C@H](C)[C@H](CC(=O)OC)OO1` [MANADOPEROXIDE A], for which the concentration for half-maximal inhibition (IC50) came out at 3.74 µM in the experiment with Plasmodium falciparum [1] and 6.88 µM in the experiment with Plasmodium falciparum [2]. The like results for `CC/C=C(C)/C=C/CCC[C@]1(OC)C[C@H](C)[C@H](CC(=O)OC)OO1` [MANADOPEROXIDE B] were, in that order, 3.69 µM and 6.76 µM. The matching figures for `COC(=O)C[C@@H]1OO[C@@](CCC/C=C/C(C)=O)(OC)C[C@@H]1C` [MANADOPEROXIDE C]: 2.33 µM and 4.54 µM. The like results for `COC(=O)C[C@@H]1OO[C@@](CCC[C@H](O)/C=C(\C)[C@H](C)O)(OC)C[C@@H]1C` [MANADOPEROXIDE D] were, in that order, 7.93 µM and 10.4 µM. In the experiment with Plasmodium falciparum [1], `CC/C=C/[C@H](CC)C[C@@]1(C)C[C@@H](CC)[C@@H](CC(=O)OC)OO1` [PLAKORTIN] returned an IC50 of 0.39 µM.

For the origin of these results see ChEMBL document CHEMBL1166001, “Manadoperoxides A-D from the Indonesian sponge Plakortis cfr. simplex. Further insights on the structure-activity relationships of simple 1,2-dioxane antimalarials” (J Nat Prod, 2010).
